# Measurements from patent publication US12528802B2, “Heterocyclic compound” (Takeda Pharmaceutical Company Limited, priority 2019, dated 2026).
# Molecular target: T1, glucosylceramide synthase (Homo sapiens, UniProt Q16739)
# T1 construct: made in house; host or cells: Expi293F cells (transient expression, pcDNA3.3-TOPO vector); microsome fraction used as enzyme source
# T1 sequence (Q16739 1-394): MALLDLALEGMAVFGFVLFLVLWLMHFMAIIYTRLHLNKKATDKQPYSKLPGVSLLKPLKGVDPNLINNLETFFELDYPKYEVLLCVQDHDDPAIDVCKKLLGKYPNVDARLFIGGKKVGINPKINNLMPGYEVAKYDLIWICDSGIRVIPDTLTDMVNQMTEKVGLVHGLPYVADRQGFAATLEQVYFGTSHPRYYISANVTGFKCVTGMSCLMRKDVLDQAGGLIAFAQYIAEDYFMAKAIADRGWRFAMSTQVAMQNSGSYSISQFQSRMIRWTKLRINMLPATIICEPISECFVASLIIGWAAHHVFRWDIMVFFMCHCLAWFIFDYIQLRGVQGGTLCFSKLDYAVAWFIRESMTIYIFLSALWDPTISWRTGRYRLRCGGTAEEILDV
# Test: Glucosylceramide synthase (GCS) enzyme assay, microsome fraction, C8 glucosylceramide quantified by Rapidfire MS/MS
# Assay type: biochemical
# Conditions: test compound 10 μM; 1.7 μM UDP-glucose, 3 μM C8 ceramide; room temperature 60 min
# Procedure, shortened: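 Test compound, 10 μM final, was run against human GCS from transfected Expi293F microsome fractions, using substrate solution of 6 μM C8 ceramide (in DOPC liposomes) plus 3.4 μM UDP-glucose, pH 7.5 Tris buffer, 60 min, room temperature. Product C8 glucosylceramide measured by Rapidfire MS/MS against an internal standard, % inhibition referenced to no-enzyme and DMSO wells.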
row,GCS enzyme inhibitory rate at 10 μM (%) (% of control),Compound
1,99%,"O=C1c2ccnc(-c3ccc(F)cc3OCC(F)(F)F)c2CN1c1ccc(C(O)C(F)F)cc1 (single isomer, unassigned) [Example 279, (R or S)-2-[4-(2,2-difluoro-1-hydroxyethyl)phenyl]-4-[4-fluoro-2-(2,2,2-trifluoroethoxy)phenyl]-2,3-dihydro-1H-pyrrolo[3,4-c]pyridin-1-one]"

# Same assay, conditions: test compound 10 μM; 1.7 μM UDP-glucose, 3 μM C8 ceramide; room temperature 60 min; read-out: GCS enzyme inhibitory rate at 10 μM (%) (% of control)
row,Compound,inhibition at 10 µM
1,"COc1cnc(C)cc1-c1nccc2c1CN(c1ccc(F)cc1)C2=O [Example 33, 2-(4-fluorophenyl)-4-(5-methoxy-2-methylpyridin-4-yl)-2,3-dihydro-1H-pyrrolo[3,4-c]pyridin-1-one]",68%
2,"N#CC1(c2ccc(N3Cc4c(ccnc4-c4ccc(F)cc4OCC(F)F)C3=O)cc2)CC1 [Example 302, 1-(4-{4-[2-(2,2-difluoroethoxy)-4-fluorophenyl]-1-oxo-1,3-dihydro-2H-pyrrolo[3,4-c]pyridin-2-yl}phenyl) cyclopropane-1-carbonitrile]",92%
3,"O=C1c2ccnc(-c3ccc(F)cc3OCC(F)(F)F)c2CN1c1ccc(C(O)(C(F)(F)F)C(F)(F)F)cc1 [Example 270, 4-[4-fluoro-2-(2,2,2-trifluoroethoxy)phenyl]-2-[4-(1,1,1,3,3,3-hexafluoro-2-hydroxypropan-2-yl)phenyl]-2,3-dihydro-1H-pyrrolo[3,4-c]pyridin-1-one]",99%
4,"O=C1c2ccnc(-c3ccccc3OC(F)F)c2CN1c1ccc(C(F)(F)F)cn1 [Example 67, 4-[2-(difluoromethoxy)phenyl]-2-[5-(trifluoromethyl)pyridin-2-yl]-2,3-dihydro-1H-pyrrolo[3,4-c]pyridin-1-one]",95%
5,"O=C1c2ccnc(-c3ccc(F)cc3OCC(F)(F)F)c2CN1c1cnn(C2CC2)c1 [Example 94, 2-(1-cyclopropyl-1H-pyrazol-4-yl)-4-[4-fluoro-2-(2,2,2-trifluoroethoxy)phenyl]-2,3-dihydro-1H-pyrrolo[3,4-c]pyridin-1-one]",97%
6,"COc1cc(C(=O)N2CCC2)ccc1-c1nccc2c1CN(c1ccc(OC(F)F)cc1)C2=O [Example 122, 4-[4-(azetidine-1-carbonyl)-2-methoxyphenyl]-2-[4-(difluoromethoxy)phenyl]-2,3-dihydro-1H-pyrrolo[3,4-c]pyridin-1-one]",95%
7,"COc1ccccc1-c1nccc2c1CN(c1ccc(Oc3ccccc3)cc1)C2=O [Example 5, 4-(2-methoxyphenyl)-2-(4-phenoxyphenyl)-2,3-dihydro-1H-pyrrolo[3,4-c]pyridin-1-one]",100%
8,"CC(C)(O)c1ccc(N2Cc3c(cc(C(C)(C)O)nc3-c3ccccc3OCC(F)F)C2=O)cn1 [Example 363, 4-[2-(2,2-difluoroethoxy)phenyl]-6-(2-hydroxypropan-2-yl)-2-[6-(2-hydroxypropan-2-yl)pyridin-3-yl]-2,3-dihydro-1H-pyrrolo [3,4-c]pyridin-1-one]",97%
9,"CC(C)(C#N)COc1ccc(N2Cc3c(cc(C(C)(C)O)nc3-c3ccccc3OCC(F)F)C2=O)cc1 [Example 362, 3-(4-{4-[2-(2,2-difluoroethoxy)phenyl]-6-(2-hydroxypropan-2-yl)-1-oxo-1,3-dihydro-2H-pyrrolo[3,4-c]pyridin-2-yl}phenoxy)-2,2-dimethylpropanenitrile]",100%
10,"O=C1c2ccnc(-c3ccccc3OC(F)F)c2CN1c1ccc(F)cc1 [Example 28, 4-[2-(difluoromethoxy)phenyl]-2-(4-fluorophenyl)-2,3-dihydro-1H-pyrrolo[3,4-c]pyridin-1-one]",84%
11,"CC(C)(O)COc1ccc(N2Cc3c(ccnc3-c3ccc(F)cc3OCC(F)(F)F)C2=O)nc1 [Example 255, 4-[4-fluoro-2-(2,2,2-trifluoroethoxy)phenyl]-2-[5-(2-hydroxy-2-methylpropoxy)pyridin-2-yl]-2,3-dihydro-1H-pyrrolo[3,4-c]pyridin-1-one]",100%

# Further lines, results first:
row,inhibition at 10 µM,Compound
1,98%,"CCC(=O)c1ccc(N2Cc3c(ccnc3-c3ccccc3OCC(F)(F)F)C2=O)cc1 [Example 190, 2-(4-propanoylphenyl)-4-[2-(2,2,2-trifluoroethoxy)phenyl]-2,3-dihydro-1H-pyrrolo[3,4-c]pyridin-1-one]"
2,99%,"CC(C)(O)c1cc2c(c(-c3ccccc3OCC(F)F)n1)CN(c1ccc(F)cc1)C2=O [Example 356, 4-[2-(2,2-difluoroethoxy)phenyl]-2-(4-fluorophenyl)-6-(2-hydroxypropan-2-yl)-2,3-dihydro-1H-pyrrolo [3,4-c]pyridin-1-one]"
3,100%,"CC(O)c1cc2c(c(-c3ccccc3OCC(F)(F)F)n1)CN(c1ccc(OCC(F)(F)F)cc1)C2=O (racemic) [Example 341, rac-6-(1-hydroxyethyl)-4-[2-(2,2,2-trifluoroethoxy)phenyl]-2-[4-(2,2,2-trifluoroethoxy)phenyl]-2,3-dihydro-1H-pyrrolo[3,4-c]pyridin-1-one]"
4,94%,"O=C1c2ccnc(-c3ccccc3OCC(F)(F)F)c2CN1c1ccc(F)cc1 [Example 42, 2-(4-fluorophenyl)-4-[2-(2,2,2-trifluoroethoxy)phenyl]-2,3-dihydro-1H-pyrrolo[3,4-c]pyridin-1-one]"
5,99%,"O=C1c2ccnc(-c3ccncc3OCC(F)(F)F)c2CN1c1ccc(OC(F)F)cc1 [Example 104, 2-[4-(difluoromethoxy)phenyl]-4-[3-(2,2,2-trifluoroethoxy)pyridin-4-yl]-2,3-dihydro-1H-pyrrolo[3,4-c]pyridin-1-one]"
6,100%,"Cc1cc2c(c(-c3c(F)cccc3OCC(F)(F)F)n1)CN(c1ccc(C(C)(C)O)cc1)C2=O [Example 353, 4-[2-fluoro-6-(2,2,2-trifluoroethoxy)phenyl]-2-[4-(2-hydroxypropan-2-yl)phenyl]-6-methyl-2,3-dihydro-1H-pyrrolo[3,4-c]pyridin-1-one]"
7,100%,"CC(O)(c1ccc(N2Cc3c(ccnc3-c3ccccc3OCC(F)(F)F)C2=O)cc1)C(F)F (single isomer, unassigned) [Example 315, (R or S)-2-[4-(1,1-difluoro-2-hydroxypropan-2-yl)phenyl]-4-[2-(2,2,2-trifluoroethoxy)phenyl]-2,3-dihydro-1H-pyrrolo[3,4-c]pyridin-1-one]"
8,99%,"CC(C)(O)c1ccc(N2Cc3c(ccnc3-c3cc(F)ccc3OCC(F)(F)F)C2=O)cc1 [Example 323, 4-[5-fluoro-2-(2,2,2-trifluoroethoxy)phenyl]-2-[4-(2-hydroxypropan-2-yl)phenyl]-2,3-dihydro-1H-pyrrolo[3,4-c]pyridin-1-one]"
9,100%,"Cc1cc2c(c(-c3ccccc3OCC(F)F)n1)CN(c1ccc(OCC(C)(C)O)cc1)C2=O [Example 365, 4-[2-(2,2-difluoroethoxy)phenyl]-2-[4-(2-hydroxy-2-methylpropoxy)phenyl]-6-methyl-2,3-dihydro-1H-pyrrolo[3,4-c]pyridin-1-one]"
10,95%,"COC(=O)c1ccc(N2CC3=C(OCCN=C3c3ccccc3OCC(F)(F)F)C2=O)cc1 [Example 335, methyl 4-{8-oxo-5-[2-(2,2,2-trifluoroethoxy)phenyl]-2,3,6,8-tetrahydro-7H-pyrrolo[3,4-f] [1,4]oxazepin-7-yl}benzoate]"
11,99%,"CCS(=O)(=O)c1ccc(N2Cc3c(ccnc3-c3ccccc3OCC(F)(F)F)C2=O)cc1 [Example 160, 2-[4-(ethanesulfonyl)phenyl]-4-[2-(2,2,2-trifluoroethoxy)phenyl]-2,3-dihydro-1H-pyrrolo[3,4-c]pyridin-1-one]"
12,95%,"CN(C)C(=O)c1ccc(N2Cc3c(ccnc3-c3ccccc3OCC(F)(F)F)C2=O)cc1 [Example 162, N,N-dimethyl-4-{1-oxo-4-[2-(2,2,2-trifluoroethoxy)phenyl]-1,3-dihydro-2H-pyrrolo[3,4-c]pyridin-2-yl}benzamide]"
13,99%,"CC(C)(O)Cc1ccc(N2Cc3c(ccnc3-c3ccccc3OCC(F)(F)F)C2=O)cc1 [Example 229, 2-[4-(2-hydroxy-2-methylpropyl)phenyl]-4-[2-(2,2,2-trifluoroethoxy)phenyl]-2,3-dihydro-1H-pyrrolo[3,4-c]pyridin-1-one]"
14,91%,"CC(C)(O)Cc1ccc(N2Cc3c(ccnc3-c3ccncc3OCC(F)(F)F)C2=O)cc1 [Example 307, 2-[4-(2-hydroxy-2-methylpropyl)phenyl]-4-[3-(2,2,2-trifluoroethoxy)pyridin-4-yl]-2,3-dihydro-1H-pyrrolo [3,4-c]pyridin-1-one]"
15,98%,"CC(C)(O)c1ccc(N2Cc3c(cc(Br)c(=O)n3-c3ccccc3OCC(F)(F)F)C2=O)cc1 [Example 336, 3-bromo-6-[4-(2-hydroxypropan-2-yl)phenyl]-1-[2-(2,2,2-trifluoroethoxy)phenyl]-6,7-dihydro-1H-pyrrolo[3,4-b]pyridine-2,5-dione]"
16,96%,"O=C1c2ccnc(-c3ccc(F)cc3OCC(F)(F)F)c2CN1c1ccc(C2(F)COC2)cc1 [Example 226, 2-[4-(3-fluorooxetan-3-yl)phenyl]-4-[4-fluoro-2-(2,2,2-trifluoroethoxy)phenyl]-2,3-dihydro-1H-pyrrolo[3,4-c]pyridin-1-one]"
